# According to PubChem BioAssay (NCI):
#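 Cultured in 96-well plates, cells were exposed to test compound for 48 hours across five concentrations. GI50 = concentration required for 50% inhibition of growth. TGI: total growth inhibition.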
# What was measured:
# Test in all cases: growth of human tumour cells (NCI), 48 h
# [1] = system: ACHN renal
# [2] = system: HOP-62 NSCLC
# [3] = system: NCI-H460 lung
# [4] = system: HL-60(TB) leukemia
# [5] = system: DU-145 prostate
# [6] = system: UACC-62 melanoma
# [7] = system: U251 CNS
# [8] = system: MDA-MB-435
# [9] = system: SNB-19 CNS
# [10] = system: SF-268 CNS
# [11] = system: RXF 393 renal
# [12] = system: UO-31 renal
# [13] = system: COLO 205 colon
# [14] = system: PC-3 prostate
# [15] = system: HS 578T breast
# [16] = system: LOX IMVI melanoma
# [17] = system: SF-539 CNS
# [18] = system: HCT-116 colon
# [19] = system: HOP-92 NSCLC
# [20] = system: KM12 colon
# [21] = system: OVCAR-4 ovarian
# [22] = system: EKVX NSCLC
# [23] = system: MCF7 breast
# [24] = system: A498 renal
# [25] = system: SNB-75 CNS
# [26] = system: BT-549 breast
# [27] = system: HCT-15 colon
# [28] = system: SW-620 colon
# [29] = system: NCI/ADR-RES ovarian
# [30] = system: HCC-2998 colon
# [31] = system: IGROV1 ovarian
# [32] = system: OVCAR-3 ovarian
# [33] = system: SK-OV-3 ovarian
# [34] = system: HT29 colon
# [35] = system: T-47D breast
# [36] = system: SK-MEL-28 melanoma
# [37] = system: K-562 leukemia
# [38] = system: M14 melanoma
# [39] = system: NCI-H226 lung
# [40] = system: NCI-H23 lung
# [41] = system: CCRF-CEM leukemia
# [42] = system: RPMI-8226 leukemia
# [43] = system: 786-0 renal
# [44] = system: SK-MEL-5 melanoma
# [45] = system: SN12C renal
# [46] = system: UACC-257 melanoma
# [47] = system: NCI-H522 lung
# [48] = system: SF-295 CNS
# [49] = system: TK-10 renal
# [50] = system: OVCAR-8 ovarian
# [51] = system: OVCAR-5 ovarian
# [52] = system: MDA-MB-231 breast
# [53] = system: A549 NSCLC
# [54] = system: MALME-3M melanoma
# [55] = system: CAKI-1 renal
# [56] = system: MOLT-4 leukemia
# [57] = system: SR leukemia
structure (smiles),measurement,setting,value
CCCCCCCCCCSC(=N)N (tested in a mixture with another compound),GI50,[1],2.86 µM
same,TGI,[1],10.1 µM
same,GI50,[2],11.8 µM
same,TGI,[2],27.3 µM
same,GI50,[3],2.64 µM
same,TGI,[3],6.28 µM
same,GI50,[4],1.85 µM
same,TGI,[4],4.19 µM
same,GI50,[5],4.47 µM
same,TGI,[5],16.1 µM
same,GI50,[6],1.95 µM
same,TGI,[6],3.96 µM
same,GI50,[7],1.77 µM
same,TGI,[7],3.62 µM
same,GI50,[8],1.7 µM
same,TGI,[8],3.27 µM
same,GI50,[9],4.28 µM
same,TGI,[9],18.2 µM
same,GI50,[10],4.01 µM
same,TGI,[10],17.6 µM
same,GI50,[11],2.55 µM
same,TGI,[11],7.23 µM
same,GI50,[12],3.02 µM
same,TGI,[12],13 µM
same,GI50,[13],1.86 µM
same,TGI,[13],3.78 µM
same,GI50,[14],5.01 µM
same,TGI,[14],20.1 µM
same,GI50,[15],8.03 µM
same,TGI,[15],29.5 µM
same,GI50,[16],2.72 µM
same,TGI,[16],11.1 µM
same,GI50,[17],10.9 µM
same,TGI,[17],23.8 µM
same,GI50,[18],2.6 µM
same,TGI,[18],9.55 µM
same,GI50,[19],2.66 µM
same,TGI,[19],8.83 µM
same,GI50,[20],1.97 µM
same,TGI,[20],4.12 µM
same,GI50,[21],3.44 µM
same,TGI,[21],16 µM
same,GI50,[22],6.89 µM
same,TGI,[22],23.7 µM
same,GI50,[23],2.75 µM
same,TGI,[23],10.4 µM
same,GI50,[24],6.55 µM
same,TGI,[24],19.7 µM
same,GI50,[25],1.42 µM
same,TGI,[25],3.43 µM
same,GI50,[26],6.65 µM
same,TGI,[26],25.9 µM
same,GI50,[27],2.12 µM
same,TGI,[27],5.06 µM
same,GI50,[28],2.1 µM
same,TGI,[28],4.7 µM
same,GI50,[29],6.29 µM
same,TGI,[29],25.6 µM
same,GI50,[30],1.6 µM
same,TGI,[30],3.05 µM
same,GI50,[31],5.2 µM
same,TGI,[31],18.9 µM
same,GI50,[32],2.36 µM
same,TGI,[32],6.28 µM
same,GI50,[33],11.8 µM
same,TGI,[33],24.8 µM
same,GI50,[34],1.78 µM
same,TGI,[34],4.34 µM
same,GI50,[35],1.86 µM
same,TGI,[35],4.95 µM
same,GI50,[36],2.65 µM
same,TGI,[36],8.15 µM
same,GI50,[37],1.72 µM
same,TGI,[37],5.88 µM
same,GI50,[38],1.87 µM
same,TGI,[38],3.85 µM
same,GI50,[39],18.3 µM
same,TGI,[39],40.1 µM
same,GI50,[40],11.1 µM
same,TGI,[40],25.9 µM
same,GI50,[41],3.65 µM
same,TGI,[41],17 µM
same,GI50,[42],2.53 µM
same,TGI,[42],6.31 µM
same,GI50,[43],1.91 µM
same,TGI,[43],4.54 µM
same,GI50,[44],2.83 µM
same,TGI,[44],8.55 µM
same,GI50,[45],6.28 µM
same,TGI,[45],21.6 µM
same,GI50,[46],2.46 µM
same,TGI,[46],5.93 µM
same,GI50,[47],1.91 µM
same,TGI,[47],4.68 µM
same,GI50,[48],3.79 µM
same,TGI,[48],14.3 µM
same,GI50,[49],1.95 µM
same,TGI,[49],4.19 µM
same,GI50,[50],3.05 µM
same,TGI,[50],9.64 µM
same,GI50,[51],13.1 µM
same,TGI,[51],32.7 µM
same,GI50,[52],1.8 µM
same,TGI,[52],4.22 µM
same,GI50,[53],4.36 µM
same,TGI,[53],18 µM
same,GI50,[54],2.24 µM
same,TGI,[54],5.07 µM
same,GI50,[55],2.03 µM
same,TGI,[55],5.04 µM
same,GI50,[56],1.85 µM
same,TGI,[56],5.51 µM
same,GI50,[57],2.34 µM
same,TGI,[57],6.9 µM
